In paper PMC6220849, “Mechanistic and structural studies of KDM‐catalysed demethylation of histone 1 isotype 4 at lysine 26” (Febs Letters, 2018):
Square brackets hold non-standard residues; d marks the D form. Ends that are not written are not given here. Lys(Me3) = C[N+](C)(C)CCCC[C@H](N)C(=O)O

Legend:
KDM7B (PHF8; KDM7B1–447) = experiment: MALDI-TOF MS demethylation activity assay, KDM7B (PHF8); assay type: biochemical, human; design: key to demethylation activity on methylated H1.4 peptide: 🟢: Indicates that clear demethylation activity was observed; 🟡: Indicates that low level demethylation activity was observed (<10% conversion after 1 h); 🔴: Indicates no activity under the stated conditions (1 μM KDM, 10 μM peptide); 🟡*: *Indicates demethylation activity was only observed with 5 μM KDM; conditions: peptide as substrate; MALDI-TOF MS; 1 μM KDM (* = only with 5 μM KDM), 10 μM peptide, 50 mM HEPES pH 7.5, Fe(II) 10 μM, ascorbate 100 μM, 2OG 200 μM, 1 h at 37 °C
Experimental: (§1) Recombinant proteins (1 μM) were incubated with peptides (10 μM, sequences are given in Table S1) in 50 mM HEPES, pH 7.5 with addition of Fe(II) ammonium sulfate (10 μM), sodium ascorbate (100 μM) and 2‐oxoglutaric acid (200 μM). Reactions with KDM3A and KDM7A also contained 1 mM tris(2‐carboxyethyl)phosphine hydrochloride. No enzyme reactions were included as negative controls. Reactions were incubated for 1 h at 37 °C before being quenched with 1 : 1 (v/v) methanol. Analysis was carried out by MALDI‐TOF MS (Bruker, Billerica, MA, USA), with demethylation observed as mass shifts of 14 Da.
Given the activity observed with KDM4E and KDM7A, we decided to investigate the intra‐subfamily conservation of this demethylation activity. The demethylation activity of the other subfamily members (KDM4A‐D and KDM7B) was therefore screened. […] Note that as with H3K9, demethylation of the monomethylated H1.4K26 peptide was only observed with KDM4E, under the stated conditions 24.
N ^ε‐Trimethylated H3K4 binds to the plant homeobox domain of KDM7B, targeting the N ^ε‐dimethyllysine at H3K9 to the catalytic domain, and thus promoting demethylation 29, 44. To test whether similar targeting may occur with H1.4, promoting activity at H1.4K26, an H1.4 peptide was synthesised containing di‐N ^ε‐methyllysine at K26 and tri‐N ^ε‐methyllysine at K21 (i.e. at the equivalent position in the sequence to K4 in the H3 peptide, Fig. 1B, Table S1). Monomethylation at H1.4K21 has previously been observed by proteomic mass spectrometry 45. With the aim of enhancing activity, the enzyme concentration was increased from 1 μM to 5 μM, and time course analyses were conducted with both KDM7A and KDM7B, both with the new peptide (H1.4(18–32)K21me3K26me2) and the H1.4 peptides methylated only at K26 (Fig. 2B). […] Thus, it appears unlikely that N ^ε‐trimethylation at H1.4K21 promotes demethylation at H1.4K26 by KDM7B.

KDM2A (KDM2A1–557) = experiment: MALDI-TOF MS demethylation activity assay, KDM2A; assay type: biochemical, human; design: key: 🟢: Indicates that clear demethylation activity was observed; 🟡: Indicates that low level demethylation activity was observed (<10% conversion after 1 h); 🔴: Indicates no activity under the stated conditions (1 μM KDM, 10 μM peptide); 🟡*: *Indicates demethylation activity was only observed with 5 μM KDM; conditions: peptide as substrate, 1 μM KDM, 10 μM peptide, 50 mM HEPES pH 7.5, Fe(II) 10 μM, ascorbate 100 μM, 2OG 200 μM, 1 h at 37 °C
Experimental: as §1
The propensity of human JmjC KDMs to catalyse demethylation at H1.4K26 was investigated using recombinant forms of the catalytic domains of representatives of each human JmjC KDM subfamily (KDM2‐7) and fragment peptides (Table S1) 37. Three peptides with identical sequences, corresponding to residues 18–32 of histone H1.4 (H2N‐[…]‐CONH2), but containing either a N ^ε‐tri‐, di‐ or monomethyllysine at K26 were synthesised (Fig. 1B and Table S1). Activity assays monitoring JmjC KDM‐catalysed demethylation of the peptides were then carried out; samples were prepared containing each peptide, 2‐oxoglutarate (2OG), ferrous iron, ascorbate and individual representatives from each JmjC KDM subfamily (KDM2A 38, KDM3A 21, KDM4E 22, KDM5C 39, 40, KDM6B 41, KDM7A 42).

TPVKKKAR[Lys(Me3)]SAGAAK [H1.4(18–32)K26me3, peptide of residues 18–32 of histone H1.4 with N ε-trimethyllysine at K26]
demethylation activity on methylated H1.4 peptide (KDM7B (PHF8; KDM7B1–447)): 🔴 | demethylation activity on methylated H1.4 peptide (KDM2A (KDM2A1–557)): 🔴
